Experimental data as given in patent publication US20130045475A1, “2-Nitrobenzyl-Modified Ribonucleotides” (ALERE SAN DIEGO, INC., priority 2004, published 2013).

Key:
T7 RNA polymerase [1] = target: T1, T7 RNA polymerase (Escherichia phage T7, UniProt P00573); details: elongation mode complexes on duplex DNA substrates
T7 RNA polymerase [2] = target: T1, T7 RNA polymerase
Experimental: The reaction was started by the addition of 20 μl of 10 mM 2′-(2-Nitrobenzyl)-ATP and incubated for 2 hours at 37° C. Subsequently the reaction was split into 4 samples and subjected to deprotection: two samples were exposed to UV irradiation as described above, two untreated samples were incubated for the same period of time at ambient temperature. Deprotection was followed by addition of 1 volume of either extension mix containing 250 μM rNTPs in transcription buffer, or addition of transcription buffer only. Samples were then incubated for another 1 hour at 37° C.
Processing, separation and detection of products was done as described above.

T7 RNA polymerase [3] = target: T1, T7 RNA polymerase; test: Primer extension reactions with RNA/DNA scaffold and T7 RNA polymerase; format: biochemical; set-up: purchased Fermentas; details: for extension of the RNA primer of the scaffold: sole nucleotide offered, template encodes rATP then rGTP, FIG. 2B
Experimental: The nucleic acid scaffolds were formed by incubating 1 nmol RNA-1 (5′-biotin-AACUGCGGCGAU-3′ (SEQ ID NO:1)) and 1 nmol DNA-1 (5′-[…]-3′ (SEQ ID NO:2)) in 100 μl transcription buffer (200 mM Tris-HCl (pH 7.9 at 25° C.), 30 mM MgCl2, 50 mM DTT, 50 mM NaCl, 10 mM spermidine) for 10 minutes at 70° C. Annealing occurred by slowly lowering the temperature to 25° C. The concentration of hybrid was assumed to be 10 μM.
For the primer extension reactions 2 pmoles of scaffold were mixed with 10 units of T7 RNA polymerase (Fermentas) in 9 μl transcription buffer to allow the transcription complex to form. Reactions were started by the addition of 1 μl of 1 mM nucleotide solution and incubated for 20 minutes at 37° C. Reactions were stopped by addition of 2 μl 500 mM EDTA and cooled on ice. UV irradiation was done for 10 minutes on a UV lamp.
Samples were precipitated, dissolved in formamide loading buffer and resolved on a denaturing 16% polyacrylamide gel (8M urea). Gels were electroblotted onto nylon-membrane (Osmonics, USA) in blotting buffer (0.5×TBE). Blots were incubated in blocking buffer (1×TBSTw/1% blocking reagent (Roche)) for 1 hour at room temperature to avoid non-specific noise, incubated with 0.5 μg/ml streptavidin-HRP (Sigma) in blocking buffer for 1 hour and washed extensively in Tris buffered saline containing 0.1% Tween-20. Detection was performed using a chemiluminescent substrate according to the instructions of the manufacturer (Pierce).

T1 sequence (P00573 whole entry): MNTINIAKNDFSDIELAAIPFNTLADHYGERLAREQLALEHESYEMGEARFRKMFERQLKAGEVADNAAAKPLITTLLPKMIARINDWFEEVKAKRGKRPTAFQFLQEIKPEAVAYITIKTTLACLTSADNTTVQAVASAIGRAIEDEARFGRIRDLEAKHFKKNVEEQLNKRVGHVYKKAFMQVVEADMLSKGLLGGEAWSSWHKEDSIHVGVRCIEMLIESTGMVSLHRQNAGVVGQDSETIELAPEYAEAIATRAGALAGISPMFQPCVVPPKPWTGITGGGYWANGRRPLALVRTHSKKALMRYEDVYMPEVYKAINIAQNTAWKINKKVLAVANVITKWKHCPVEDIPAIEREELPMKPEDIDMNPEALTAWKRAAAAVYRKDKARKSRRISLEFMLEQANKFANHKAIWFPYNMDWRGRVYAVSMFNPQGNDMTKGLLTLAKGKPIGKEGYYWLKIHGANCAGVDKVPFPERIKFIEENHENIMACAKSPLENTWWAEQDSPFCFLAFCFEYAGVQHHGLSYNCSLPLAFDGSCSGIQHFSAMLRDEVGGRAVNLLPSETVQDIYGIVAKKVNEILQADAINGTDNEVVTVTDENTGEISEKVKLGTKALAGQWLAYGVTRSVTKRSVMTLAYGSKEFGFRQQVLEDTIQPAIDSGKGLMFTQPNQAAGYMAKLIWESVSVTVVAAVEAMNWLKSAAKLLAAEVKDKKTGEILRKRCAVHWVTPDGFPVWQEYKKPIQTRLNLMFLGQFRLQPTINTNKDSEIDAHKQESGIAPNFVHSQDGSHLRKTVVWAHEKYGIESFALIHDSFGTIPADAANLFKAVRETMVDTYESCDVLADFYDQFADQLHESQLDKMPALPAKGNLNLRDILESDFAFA

Structure (SMILES)	incorporation into a growing RNA chain (T7 RNA polymerase [1])	reversal of termination on deprotection (T7 RNA polymerase [2]; UV irradiation 10 minutes, then 250 μM rNTPs extension mix, 1 hour at 37° C., FIG. 3 lane 4)	termination of transcription (T7 RNA polymerase [2]; scaffold + T7 RNAP + 2′-(2-Nitrobenzyl)-ATP 2 hours at 37° C., no UV, then rNTPs, FIG. 3 lane 3)	incorporation of the nucleotide analog into a growing RNA chain (T7 RNA polymerase [3]; RNA/DNA scaffold, 10 units T7 RNA polymerase, 1 μl of 1 mM nucleotide solution, 20 minutes at 37° C., gel mobility before and after UV)	extension of the RNA primer of the scaffold (T7 RNA polymerase [3])
Nc1ncnc2c1ncn2[C@@H]1O[C@H](COP(=O)(O)OP(=O)(O)OP(=O)(O)O)[C@@H](O)[C@H]1OCc1ccccc1[N+](=O)[O-] [2′-(2-Nitrobenzyl)-ATP]	we have not observed this activity	Elongation of the transcript can resume upon removal of the protecting 2-Nitrobenzyl group by UV irradiation	acts as a bona fide terminator of transcription	incorporation into the nascent RNA chain by T7 RNAP	
Nc1ncnc2c1ncn2[C@@H]1O[C@H](COP(=O)(O)OP(=O)(O)OP(=O)(O)O)[C@@H](O)[C@H]1O [rATP, adenosine 5′-triphosphate]					extended by one or two bases
Nc1ccn([C@@H]2O[C@H](COP(=O)(O)OP(=O)(O)OP(=O)(O)O)[C@@H](O)[C@H]2O)c(=O)n1 [rCTP, cytidine 5′-triphosphate]					extension is limited to one base only
